Test results published in US11447504B2, “Macrocyclic chlorine substituted indole derivatives” (Bayer Aktiengesellschaft, priority 2017, dated 2022).
Where two headings read alike, the source gives them in different places.

Key:
SUDHL5 [1] = test: Induction of caspase-3/7 activity (Assay 4), SUDHL5; assay type: cell-based; settings: SUDHL5 cells
How it was run: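 DLBCL cells treated with compounds for 3 hours at 37° C. Caspase-3/7 activity measured by Caspase-Glo 3/7 luminescence, with medium-only background subtracted.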

SUDHL10 [2] = test: Induction of caspase-3/7 activity (Assay 4), SUDHL10; assay type: cell-based; settings: SUDHL10 cells
How it was run: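 Luminescent Caspase-Glo 3/7 read-out after a 3 h, 37 °C compound exposure of the DLBCL line SUDHL10. Values are background-corrected using medium-only wells.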

SUDHL5 [3] = test: Antiproliferation assay 7, SUDHL5; assay type: cell-based; settings: SUDHL5 cells, CellTiter-Glo, read-out: Antiproli SUDHL5 IC50 (median)
How it was run: (§1)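 Proliferation was read by CellTiter-Glo luminescence after 72 hours of compound treatment at 37° C. The read was referenced to a parallel plate measured at time zero.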

MV-4-11 = test: Antiproliferation assay 7, MV-4-11; assay type: cell-based; settings: MV-4-11 cells, CellTiter-Glo, read-out: Antiproli MV-4-11 IC50 median
How it was run: as §1

AMO-1 = test: Antiproliferation assay 7, AMO-1; assay type: cell-based; settings: AMO-1 cells, CellTiter-Glo, read-out: Antiproli AMO-1 IC50 median
How it was run: as §1

HMC-1-8 = test: Antiproliferation assay 7, HMC-1-8; assay type: cell-based; settings: HMC-1-8 cells, CellTiter-Glo, read-out: Antiproli HMC-1-8 IC50 median
How it was run: as §1

SK-BR-3 = test: Antiproliferation assay 7, SK-BR-3; assay type: cell-based; settings: Homo sapiens; SK-BR-3 cells, 72 hours, CellTiter-Glo; read-out: Antiproli SK-BR-3 IC50 median
Method: (§2) Assessment of the Anti-Proliferative Effect of Compounds in Different Cell Lines
(§3) The impact of compounds on the proliferation of different cell lines was assessed using the CellTiter-Glo® Luminescent Cell Viability reagent from Promega (G7573).
(§4) In parallel, cells were plated in a reference (day 0) plate for time zero determination.
(§5) Rim wells were excluded. The cells were incubated for 72 hours in a humidified incubator at 37° C. The day 0 plate was measured by adding 30 μL/well of CTG solution (CellTiter-Glo® Luminescent Cell Viability reagent, Promega G7573) to time zero wells in the reference plate followed by a 10 minutes incubation and luminescence reading at 0.1 ms. using the PHERAstar FS microplate reader (BMG Labtech).
(§6) After 72 hours incubation, the treated plates were measured in the same way as the day 0 plate mentioned above.

SUDHL5 [4] = test: Induction of cytotoxicity (Assay 6), SUDHL5
SUDHL10 [5] = test: Induction of cytotoxicity (Assay 6), SUDHL10
MCL-1 = MCL-1 (Homo sapiens (Human), UniProt Q07820, K194A/K197A/R201A); test: Protein-protein interaction assay MCL-1/Noxa BH3 peptide (MCL-1 Assay, TR-FRET); assay type: binding; settings: read-out: MCL-1 Assay IC50 (median)
Method: The dose-dependent inhibition by the compounds described in this invention of the interaction between MCL-1 and the BH3 domain of Noxa (both human) was determined using a steady state binding competition assay with time-resolved fluorescence energy transfer (TR-FRET) readout. […] The MBP-MCL-1 was purchased from Beryllium (Bedford, Mass., USA). The expression and purification of this protein construct has been described elsewhere (DOI:10.1371/journal.pone.0125010). The Noxa BH3-derived peptide can be obtained from e.g. Biosyntan (Berlin, Germany).
(§7) For that, 100-fold concentrated DMSO solutions were prepared by serial dilutions (1:3.4) of a 2 mM stock solution in a clear, 384-well microtiter plate (Greiner Bio-One, Frickenhausen, Germany). From there, 50 nl were transferred in a dark test plate (Greiner Bio-One, Frickenhausen, Germany). […] This was followed by a 10-minute incubation step at 22° C. for pre-equilibration of the putative complex between MBP-MCL-1 and the compounds.
(§8) The mixture was incubated in the dark for one hour at 22° C. and then overnight at 4° C.
(§9) The resulting data (ratio) were normalized, taking 0% inhibition as the mean value of control measurements (usually 32 data points) where all reagents were included. In this case 50 nl DMSO were used instead of compounds. […] IC50 values were determined by regression analysis based on a 4 parameter equation (minimum, maximum, IC50, Hill; Y=Max+(Min−Max)/(1+(X/IC50)^Hill) using the Screener Software (Genedata).

BCL-XL = BCL-XL (Homo sapiens (Human), UniProt Q07817); test: Protein-protein interaction assay BCL-XL/Bad BH3 peptide (BCL-XL Assay, TR-FRET); assay type: binding; settings: read-out: BCL-XL Assay IC50 (median)
Method: Assay 2 Protein-Protein Interaction Assay: BCL-XL/Bad BH3 Peptide (BCL-XL Assay)
The dose-dependent inhibition by the compounds described in this invention of the interaction between BCL-XL and the BH3 domain of Bad (both human) was determined using a steady state binding competition assay with time-resolved fluorescence energy transfer (TR-FRET) readout.
as §7, with “His-BCL-XL” for “MBP-MCL-1”
The mixture was incubated in the dark for one hour at 22° C. and then overnight at 4° C. The formation of BCL-XL/Bad complexes was determined by measuring the resonance energy transfer of the anti-His- Eu-cryptate antibody to the streptavidin-XL665 present in the reaction.
as §9

BCL-2 = BCL-2 (Homo sapiens (Human), UniProt P10415); test: Protein-protein interaction assay BCL-2/Bad BH3 peptide (BCL-2 Assay, TR-FRET); assay type: binding; settings: read-out: BCL-2 Assay IC50 (median)
Method: The dose-dependent inhibition by the compounds described in this invention of the interaction between BCL-2 and the BH3 domain of Bad (both human) was determined using a steady state binding competition assay with time-resolved fluorescence energy transfer (TR-FRET) readout.
as §7, with “His-BCL-2” for “MBP-MCL-1”
as §8, §9

SUDHL10 [6] = test: Antiproliferation assay 7, SUDHL10; assay type: cell-based; settings: Homo sapiens, SU-DHL10, 72 h, SUDHL10 cells, CellTiter-Glo, read-out: Antiproli SUDHL10 IC50 (median)
Method: as §2, §3, §4, §5, §6

[7] = Homo sapiens, SU-DHL-5, 3 h, Caspase-Glo 3/7, read-out: Caspase SUDHL5 EC50 (median)
[8] = Homo sapiens, SU-DHL10, 3 h, Caspase-Glo 3/7, read-out: Caspase SUDHL10 EC50 (median)
[9] = Homo sapiens, SU-DHL-5, 5 h, read-out: Cytotox SUDHL5 IC50 (median), SUDHL5 cells, 5 hours, CellTiter-Glo
[10] = Homo sapiens, SU-DHL10, 5 h, read-out: Cytotox SUDHL10 IC50 (median), SUDHL10 cells, 5 hours, CellTiter-Glo
[11] = 3 hours, Caspase-Glo 3/7, read-out: Caspase SUDHL5 EC50 (median)
[12] = read-out: Cytotox SUDHL5 IC50 (median), SUDHL5 cells, 5 hours, CellTiter-Glo

Sequence of BCL-2 (P10415 other isoform, or with tags, fused parts or gaps): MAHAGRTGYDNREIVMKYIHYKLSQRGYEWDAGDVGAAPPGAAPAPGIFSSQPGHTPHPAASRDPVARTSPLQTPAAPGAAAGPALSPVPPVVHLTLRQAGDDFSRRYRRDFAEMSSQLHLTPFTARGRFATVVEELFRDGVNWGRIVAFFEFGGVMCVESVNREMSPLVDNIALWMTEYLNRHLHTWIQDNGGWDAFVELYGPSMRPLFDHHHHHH
Sequence of BCL-XL (Q07817 other isoform, or with tags, fused parts or gaps): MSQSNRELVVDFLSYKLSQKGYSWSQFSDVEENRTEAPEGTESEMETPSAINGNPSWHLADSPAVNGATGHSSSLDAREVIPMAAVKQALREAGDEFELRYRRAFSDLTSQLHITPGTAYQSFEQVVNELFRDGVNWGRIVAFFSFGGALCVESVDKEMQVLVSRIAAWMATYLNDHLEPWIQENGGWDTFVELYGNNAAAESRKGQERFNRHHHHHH
Sequence of MCL-1 (Q07820 whole entry K194A/K197A/R201A, looked up, the tested form may be a part): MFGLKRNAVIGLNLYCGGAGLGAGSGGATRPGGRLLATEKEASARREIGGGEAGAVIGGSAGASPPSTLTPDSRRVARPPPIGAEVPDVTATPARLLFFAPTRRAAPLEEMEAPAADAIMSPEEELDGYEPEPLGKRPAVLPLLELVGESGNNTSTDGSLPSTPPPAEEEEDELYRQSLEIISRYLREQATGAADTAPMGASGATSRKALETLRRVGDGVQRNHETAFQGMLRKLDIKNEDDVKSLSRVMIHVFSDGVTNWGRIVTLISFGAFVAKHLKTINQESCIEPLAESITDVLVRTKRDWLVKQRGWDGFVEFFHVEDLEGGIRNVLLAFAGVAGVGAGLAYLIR

| Compound | EC50 (SUDHL5 [1]; [7]) [nM] | EC50 (SUDHL10 [2]; [8]) [nM] | IC50 (SUDHL5 [3]; Homo sapiens, SU-DHL-5, 72 h) [nM] | IC50 (MV-4-11; Homo sapiens, MV4-11, 72 h) [nM] | IC50 (SK-BR-3) [nM] | IC50 (MCL-1) [nM] | IC50 (BCL-XL) [µM] | IC50 (BCL-2) [µM] | EC50 (SUDHL5 [1]; [11]) [nM] | IC50 (AMO-1; Homo sapiens, AMO1, 72 h) [nM] | IC50 (HMC-1-8; 72 h) [µM] | IC50 (SUDHL5 [4]; [9]) [nM] | IC50 (SUDHL10 [5]; [10]) [nM] | IC50 (SUDHL5 [4]; [12]) [nM] | further results |
| --- | --- | --- | --- | --- | --- | --- | --- | --- | --- | --- | --- | --- | --- | --- | --- |
| Cc1c2c(nn1C)CN(C)CCCCn1c(C(=O)O)c(CCCOc3cccc4ccccc34)c3ccc(Cl)c-2c31 (racemic) [Example 11, (rac)-4-chloro-2,3,14-trimethyl-7-[3-(naphthalen-1-yloxy)propyl]-10,11,12,13,14,15-hexahydro-2H-pyrazolo[3′,4′:8,9][1,6]diazacycloundecino[10,11,1-hi]indole-8-carboxylic Acid] | 140 | 260 | 300 | 442 | 1480 |  |  |  |  | 728 | 4.19 | 180 | 370 |  |  |
| CCc1c2c(nn1C)COCCCCn1c(C(=O)O)c(CCCOc3cccc4ccccc34)c3ccc(Cl)c-2c31 (racemic) [Example 19, (rac)-4-chloro-3-ethyl-2-methyl-7-[3-(naphthalen-1-yloxy)propyl]-2,10,11,12,13,15-hexahydropyrazolo[4′,3′:9,10][1,6]oxazacycloundecino[8,7,6-hi]indole-8-carboxylic Acid] | 340 | 320 | 570 | 1650 | 3260 |  |  |  |  |  |  | 480 | 440 |  |  |
| CCc1c2c(nn1C)CN(C)CCCCn1c(C(=O)O)c(CCCOc3cccc4ccccc34)c3ccc(Cl)c-2c31 (racemic) [Example 22, (rac)-4-chloro-3-ethyl-2,14-dimethyl-7-[3-(naphthalen-1-yloxy)propyl]-10,11,12,13,14,15-hexahydro-2H-pyrazolo[3′,4′:8,9][1,6]diazacycloundecino[10,11,1-hi]indole-8-carboxylic Acid] | 140 | 270 | 280 | 692 | 894 |  |  |  |  | 659 |  | 160 | 400 |  |  |
| CCc1c2c(nn1C)COCCCCn1c(C(=O)O)c(CCCOc3cccc4ccccc34)c3ccc(Cl)c-2c31 (single isomer, unassigned; enantiomer 1) [Example 20, 4-chloro-3-ethyl-2-methyl-7-[3-(naphthalen-1-yloxy)propyl]-2,10,11,12,13,15-hexahydropyrazolo[4′,3′:9,10][1,6]oxazacycloundecino[8,7,6-hi]indole-8-carboxylic Acid (Enantiomer 1)] |  |  |  |  | 2520 |  |  |  | 140 | 874 | 2.47 |  |  | 170 | IC50 (SUDHL5 [3]; 72 hours): 220 nM; IC50 (SUDHL10 [6]): 450 nM; IC50 (MV-4-11; 72 hours): 907 nM |

Now from value to compound, other results behind:

| EC50 (SUDHL5 [1]; [7]) [nM] | EC50 (SUDHL10 [2]; [8]) [nM] | IC50 (SUDHL5 [3]; Homo sapiens, SU-DHL-5, 72 h) [nM] | IC50 (MV-4-11; Homo sapiens, MV4-11, 72 h) [nM] | IC50 (SK-BR-3) [nM] | IC50 (MCL-1) [nM] | IC50 (BCL-XL) [µM] | IC50 (BCL-2) [µM] | EC50 (SUDHL5 [1]; [11]) [nM] | Compound | IC50 (AMO-1; Homo sapiens, AMO1, 72 h) [nM] | IC50 (HMC-1-8; 72 h) [µM] | IC50 (SUDHL5 [4]; [9]) [nM] | IC50 (SUDHL10 [5]; [10]) [nM] | IC50 (SUDHL5 [4]; [12]) [nM] | further results |
| --- | --- | --- | --- | --- | --- | --- | --- | --- | --- | --- | --- | --- | --- | --- | --- |
| 480 | 490 | 970 |  |  | 1.1 | > 20 | 17 |  | CCc1c2c(nn1C)N(C)CCCCCn1c(C(=O)O)c(CCCOc3cccc4cc(F)ccc34)c3ccc(Cl)c-2c31 (racemic) [Example 77, (rac)-4-chloro-3-ethyl-7-{3-[(6-fluoronaphthalen-1-yl)oxy]propyl}-2,15-dimethyl-10,11,12,13,14,15-hexahydro-2H-pyrazolo[4′,3′:4,5][1,6]diazacycloundecino[3,2,1-hi]indole-8-carboxylic Acid] | 530 | 3.3 | 450 | 870 |  |  |
|  |  |  |  |  | 16 | > 20 | > 20 | 15000 | Cc1c2c(nn1C)N(C)CCCCCn1c(C(=O)O)c(CCCOc3cccc4ccccc34)c3ccc(Cl)c-2c31 (single isomer, unassigned) [Example 73, (−)-4-chloro-2,3,15-trimethyl-7-{3-[(naphthalen-1-yl)oxy]propyl}-10,11,12,13,14,15-hexahydro-2H-pyrazolo[4′,3′:4,5][1,6]diazacycloundecino[3,2,1-hi]indole-8-carboxylic acid] |  |  |  |  | 14000 | EC50 (SUDHL10 [2]; 3 hours, Caspase-Glo 3/7, read-out: Caspase SUDHL10 EC50 (median)): 18000 nM; IC50 (AMO-1; 72 hours): 18000 nM; IC50 (HMC-1-8; 72 hours): 24 µM; IC50 (SUDHL10 [5]; read-out: Cytotox SUDHL10 IC50 (median), SUDHL10 cells, 5 hours, CellTiter-Glo): 26000 nM |
